{"source": "patent US11193164B2", "about": "“Methods of diagnosing and treating cancer targeting extrachromosomal DNA” (The Regents of the University of California, priority 2017, dated 2021)", "key": {"[1]": {"system": "GBM39 cells", "assay": "Next generation sequencing fine structure analysis of EGFRvIII amplification in GBM39 cultures", "assay_type": "cell-based, human", "details": "Erlotinib Treatment (ERZ) sample (row 4), FIG. 13B, naive samples 110 to 150"}, "[2]": {"system": "GBM39 cells", "assay": "FISH images of EGFRvIII amplification (extrachromosomal or chromosomal DNA) in GBM39 cells", "assay_type": "cell-based, human", "details": "FIG. 13A", "method": "Cytogenetics. Metaphase cells were obtained by treating cells with Karyomax (Gibco) at a final concentration of 0.01 μg/ml for 1-3 hours. Cells were collected, washed in PBS, and resuspended in 0.075 M KCl for 15-30 minutes. Carnoy's fixative (3:1 methanol/glacial acetic acid) was added dropwise to stop the reaction. Cells were washed an additional 3 times with Carnoy's fixative, before being dropped onto humidified glass sides for metaphase cell preparations. For ECdetect analyses, DAPI was added to the slides. Images in the main figures were captured with an Olympus FV1000 confocal microscope. All other images were captured at a magnification of 1000 with an Olympus BX43 microscope equipped with a QiClick cooled camera. FISH was performed by adding the appropriate DNA FISH probe onto the fixed metaphase spreads. A coverslip was added and sealed with rubber cement. DNA denaturation was carried out at 75° C. for 3-5 minutes and the slides were allowed to hybridize overnight at 37° C. in a humidified chamber. Slides were subsequently washed in 0.4×SSC at 50° C. for 2 minutes, followed by a final wash in 2×SSC/0.05% Tween-20. Metaphase cells and interphase nuclei were counterstained with DAPI, a coverslip was applied, and images were captured."}}, "data": [{"smiles": "C#Cc1cccc(Nc2ncnc3cc(OCCOC)c(OCCOC)cc23)c1", "note": "[Erlotinib]", "values": [{"measurement": "Average copy numbers of amplified intervals as determined from sequencing analysis", "setting": "[1]", "value": 5.4}, {"measurement": "Location of EGFRvIII amplification in FISH images", "setting": "[2]; GBM39 cells after Drug Withdrawal", "value": "EC amplification"}, {"measurement": "Location of EGFRvIII amplification in FISH images", "setting": "[2]; GBM39 cells in response to Erlotinib Treatment (ERZ), naive cells EC amplification", "value": "HSR amplification"}]}]}
